“And” between values parts separate entries of the source, which are not always exact repeats. Equal entries are not always repeated. Inconclusive results and toxic doses are left out.
System: B6C3F1 mice, B16 melanoma ip, median survival T/C
Test: NCI In Vivo Anticancer Drug Screen. Data for tumor model B16 Melanoma (intraperitoneal) in B6C3F1 mice
Settings: endpoint: median survival time, higher = longer survival
Summary of the method: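 Transplantable tumor in mice; treated vs vehicle control groups; survival or tumor size measured; value = T/C ratio.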

[1] = dose: 12.5 mg/kg/injection, schedule: Q01DX009 (ip), vehicle: saline with Tween-80
[2] = dose: 25.0 mg/kg/injection, schedule: Q01DX009 (ip), vehicle: saline with Tween-80
[3] = dose: 100.0 mg/kg/injection, schedule: Q01DX009 (ip), vehicle: saline with Tween-80
[4] = dose: 200.0 mg/kg/injection, schedule: Q01DX009 (ip), vehicle: saline with Tween-80
[5] = dose: 1.5 mg/kg/injection, schedule: Q01DX009 (ip), vehicle: water
[6] = dose: 3.0 mg/kg/injection, schedule: Q01DX009 (ip), vehicle: water
[7] = dose: 12.0 mg/kg/injection, schedule: Q01DX009 (ip), vehicle: water
[8] = dose: 12.5 mg/kg/injection, schedule: Q01DX009 (ip), vehicle: saline
[9] = dose: 25.0 mg/kg/injection, schedule: Q01DX009 (ip), vehicle: saline
[10] = dose: 50.0 mg/kg/injection, schedule: Q01DX009 (ip), vehicle: saline with Tween-80
[11] = dose: 50.0 mg/kg/injection, schedule: Q01DX009 (ip), vehicle: saline
[12] = dose: 100.0 mg/kg/injection, schedule: Q01DX009 (ip), vehicle: saline
[13] = dose: 3.12 mg/kg/injection, schedule: Q01DX009 (ip), vehicle: saline
[14] = dose: 6.25 mg/kg/injection, schedule: Q01DX009 (ip), vehicle: saline
[15] = dose: 3.0 mg/kg/injection, schedule: Q01DX009 (ip), vehicle: saline
[16] = dose: 6.0 mg/kg/injection, schedule: Q01DX009 (ip), vehicle: saline
[17] = dose: 6.0 mg/kg/injection, schedule: Q01DX009 (ip), vehicle: water
[18] = dose: 12.0 mg/kg/injection, schedule: Q01DX009 (ip), vehicle: saline
[19] = dose: 24.0 mg/kg/injection, schedule: Q01DX009 (ip), vehicle: saline
[20] = dose: 6.25 mg/kg/injection, schedule: Q01DX009 (ip), vehicle: saline with Tween-80
[21] = dose: 50.0 mg/kg/injection, schedule: Q01DX009 (ip), vehicle: Klucel (hydroxypropylcellulose) (HPC)
[22] = dose: 100.0 mg/kg/injection, schedule: Q01DX009 (ip), vehicle: Klucel (hydroxypropylcellulose) (HPC)

Cc1ccc(C(=O)OC(C(=O)O)C(OC(=O)c2ccc(C)cc2)C(=O)O)cc1 (stereo not given) (tested in a mixture with another compound)
T/C (dose: 6.25 mg/kg/injection, schedule: Q01DX009 (ip), vehicle: other): 93 % of control | T/C (dose: 12.5 mg/kg/injection, schedule: Q01DX009 (ip), vehicle: other): 91 % of control | T/C (dose: 25.0 mg/kg/injection, schedule: Q01DX009 (ip), vehicle: other): 111 % of control

O=C(O)CC(NC(=O)CP(=O)(O)O)C(=O)O.[NH-]C1CCCCC1[NH-].[Pt+2] (stereo not given)
T/C (dose: 0.78 mg/kg/injection, schedule: Q01DX009 (ip), vehicle: dextrose): 157 % of control | T/C (dose: 3.12 mg/kg/injection, schedule: Q01DX009 (ip), vehicle: dextrose): 175 % of control

c1ccc(OCC2CO2)c(OCC2CO2)c1 (stereo not given)
T/C [1]: 108 % of control | T/C [2]: 109 % of control and 114 % of control and 118 % of control | T/C [3]: 150 % of control and 171 % of control | T/C [4]: 219 % of control

CCSCCNC(=O)[C@@]1(O)[C@H](O)[C@]2(CC)C=CCN3CC[C@@]4(c5cc([C@@]6(OC(C)=O)C[C@H]7C=C(CC)CN(CCc8c6[nH]c6ccccc86)C7)c(OC)cc5N(C)[C@@H]14)[C@@H]32
T/C (dose: 0.5 mg/kg/injection, schedule: Q01DX009 (ip), vehicle: water): 164 % of control

COc1cccc2c1C(=O)c1c(O)c3c(c(O)c1C2=O)C[C@@](O)(C(C)=O)C[C@@H]3OC1CC(N(Cc2ccccc2)Cc2ccccc2)C(O)C(C)O1 (stereo not given in full)
T/C (dose: 1.5 mg/kg/injection, schedule: Q01DX009 (ip), vehicle: saline with Tween-80): 100 % of control | T/C [5]: 112 % of control | T/C (dose: 3.0 mg/kg/injection, schedule: Q01DX009 (ip), vehicle: saline with Tween-80): 111 % of control | T/C [6]: 116 % of control | T/C (dose: 12.0 mg/kg/injection, schedule: Q01DX009 (ip), vehicle: saline with Tween-80): 156 % of control | T/C [7]: 151 % of control

Clc1cc(Cl)c(C[N+]23CN4CN(CN(C4)C2)C3)cc1Cl
T/C [1]: 101 % of control | T/C [8]: 102 % of control | T/C [2]: 105 % of control | T/C [9]: 100 % of control | T/C [10]: 102 % of control | T/C [11]: 106 % of control | T/C [3]: 107 % of control | T/C [12]: 111 % of control

O=c1[nH]c(=O)n([C@H]2CCCO2)cc1F
T/C (dose: 12.5 mg/kg/injection, schedule: Q01DX009 (ip), vehicle: suspension in saline): 98 % of control | T/C (dose: 25.0 mg/kg/injection, schedule: Q01DX009 (ip), vehicle: suspension in saline): 100 % of control | T/C (dose: 50.0 mg/kg/injection, schedule: Q01DX009 (ip), vehicle: suspension in saline): 112 % of control | T/C (dose: 100.0 mg/kg/injection, schedule: Q01DX009 (ip), vehicle: suspension in saline): 107 % of control | T/C (dose: 200.0 mg/kg/injection, schedule: Q01DX009 (ip), vehicle: suspension in saline): 120 % of control

O=[Te]=O
T/C [13]: 110 % of control | T/C [14]: 109 % of control

CCCCCCC/C=C/C(=O)OC1C(OC2C(OC(CCCCCCC)CC(=O)OC(CCCCCCC)CC(=O)O)OC(C)C(O)C2O)OC(C)C(O)C1O (stereo not given)
T/C (dose: 0.78 mg/kg/injection, schedule: Q01DX009 (ip), vehicle: Klucel (hydroxypropylcellulose) (HPC)): 103 % of control | T/C (dose: 1.56 mg/kg/injection, schedule: Q01DX009 (ip), vehicle: Klucel (hydroxypropylcellulose) (HPC)): 87 % of control | T/C (dose: 3.12 mg/kg/injection, schedule: Q01DX009 (ip), vehicle: Klucel (hydroxypropylcellulose) (HPC)): 94 % of control

Nc1ccc2ccc(N)cc2c1
T/C [2]: 109 % of control | T/C [10]: 109 % of control | T/C [3]: 116 % of control | T/C [4]: 105 % of control

NC(N)=N/N=C/c1ccc(Cl)cc1Cl
T/C [9]: 100 % of control | T/C [11]: 89 % of control | T/C [12]: 95 % of control

CCCCCCCC(=O)N/N=C(\CO)[C@]1(O)Cc2c(O)c3c(c(O)c2[C@@H](OC2CC(N)C(O)C(C)O2)C1)C(=O)c1c(OC)cccc1C3=O (stereo not given in full)
T/C (dose: 1.5 mg/kg/injection, schedule: Q01DX009 (ip), vehicle: saline): 154 % of control | T/C [5]: 171 % of control | T/C [15]: 196 % of control | T/C [6]: 199 % of control | T/C [16]: 216 % of control | T/C [17]: 320 % of control | T/C [18]: 208 % of control | T/C [7]: 320 % of control | T/C [19]: 208 % of control

CC1c2ccccc2CC(CCN(C)C)c2ccccc21 (stereo not given)
T/C [20]: 104 % of control | T/C [1]: 98 % of control | T/C [2]: 99 % of control | T/C [10]: 95 % of control

CCCCCCCCCCCC(=O)NC1CC(O[C@H]2C[C@](O)(C(=O)CO)Cc3c(O)c4c(c(O)c32)C(=O)c2c(OC)cccc2C4=O)OC(C)C1O (stereo not given in full)
T/C [15]: 171 % of control and 294 % of control | T/C [16]: 250 % of control and 333 % of control | T/C [18]: 333 % of control and 357 % of control | T/C [19]: 122 % of control and 357 % of control | T/C (dose: 48.0 mg/kg/injection, schedule: Q01DX009 (ip), vehicle: saline): 94 % of control

CC(Br)C(=O)NC(Cc1ccccc1)C(=O)O (stereo not given)
T/C [8]: 104 % of control | T/C [9]: 95 % of control | T/C [11]: 102 % of control

Cn1c2ccccc2c(=O)c2c(O)cc3c(c21)C=CC(C)(C)O3
T/C (dose: 25.0 mg/kg/injection, schedule: Q01DX009 (ip), vehicle: Klucel (hydroxypropylcellulose) (HPC)): 86 % of control | T/C [21]: 89 % of control | T/C [22]: 96 % of control

C/C=C/c1cc2c(c(=O)o1)C(=O)[C@@H](O)[C@H](C)O2
T/C [20]: 98 % of control | T/C [1]: 103 % of control | T/C [2]: 100 % of control | T/C [10]: 118 % of control | T/C [3]: 109 % of control | T/C [4]: 103 % of control

Nc1ncnc2c1ncn2C1OC(COP(=O)(O)O)C(O)C1O (stereo not given)
T/C (dose: 40.0 mg/kg/injection, schedule: Q01DX009 (ip), vehicle: water): 86 % of control | T/C (dose: 80.0 mg/kg/injection, schedule: Q01DX009 (ip), vehicle: water): 88 % of control | T/C [12]: 109 % of control | T/C (dose: 160.0 mg/kg/injection, schedule: Q01DX009 (ip), vehicle: water): 94 % of control | T/C (dose: 200.0 mg/kg/injection, schedule: Q01DX009 (ip), vehicle: saline): 109 % of control | T/C (dose: 320.0 mg/kg/injection, schedule: Q01DX009 (ip), vehicle: water): 97 % of control | T/C (dose: 400.0 mg/kg/injection, schedule: Q01DX009 (ip), vehicle: saline): 115 % of control

COC1=Nc2ccccc2N2CCN=C12
T/C (dose: 6.25 mg/kg/injection, schedule: Q04DX003 (ip), vehicle: saline with Tween-80): 103 % of control | T/C (dose: 12.5 mg/kg/injection, schedule: Q04DX003 (ip), vehicle: saline with Tween-80): 106 % of control | T/C (dose: 25.0 mg/kg/injection, schedule: Q04DX003 (ip), vehicle: saline with Tween-80): 96 % of control | T/C (dose: 50.0 mg/kg/injection, schedule: Q04DX003 (ip), vehicle: saline with Tween-80): 96 % of control

[CH3][Sn]([CH3])([Cl])[S]CCN
T/C [13]: 109 % of control and 102 % of control | T/C [14]: 95 % of control and 96 % of control | T/C [8]: 96 % of control and 102 % of control | T/C [9]: 100 % of control | T/C [11]: 97 % of control

CCCCCCCCCCS(=O)CC(CO)NC(=O)/C=C/c1c(C)[nH]c(=O)[nH]c1=O (stereo not given)
T/C (dose: 0.37 mg/kg/injection, schedule: Q01DX009 (ip), vehicle: distilled water + Tween-80): 106 % of control | T/C (dose: 0.37 mg/kg/injection, schedule: Q01DX009 (ip), vehicle: water): 106 % of control | T/C (dose: 0.75 mg/kg/injection, schedule: Q01DX009 (ip), vehicle: distilled water + Tween-80): 95 % of control | T/C (dose: 0.75 mg/kg/injection, schedule: Q01DX009 (ip), vehicle: water): 106 % of control | T/C (dose: 1.5 mg/kg/injection, schedule: Q01DX009 (ip), vehicle: distilled water + Tween-80): 94 % of control | T/C [5]: 108 % of control | T/C (dose: 3.0 mg/kg/injection, schedule: Q01DX009 (ip), vehicle: distilled water + Tween-80): 100 % of control | T/C [6]: 117 % of control | T/C (dose: 6.0 mg/kg/injection, schedule: Q01DX009 (ip), vehicle: distilled water + Tween-80): 109 % of control | T/C [17]: 114 % of control

CC(C)(C)OC(=O)NC(Cc1ccccc1)C(=O)O (stereo not given)
T/C [21]: 104 % of control | T/C [22]: 88 % of control | T/C (dose: 200.0 mg/kg/injection, schedule: Q01DX009 (ip), vehicle: Klucel (hydroxypropylcellulose) (HPC)): 100 % of control

From PubChem BioAssay AID200 (DTP/NCI, 2004)
